{"source": "patent US20250312469A1", "about": "(CANGET BIOTEKPHARMA, priority 2024, published 2025)", "biological_target": "T1, USP2a (Homo sapiens, UniProt O75604)", "T1 sequence (O75604 1-605)": "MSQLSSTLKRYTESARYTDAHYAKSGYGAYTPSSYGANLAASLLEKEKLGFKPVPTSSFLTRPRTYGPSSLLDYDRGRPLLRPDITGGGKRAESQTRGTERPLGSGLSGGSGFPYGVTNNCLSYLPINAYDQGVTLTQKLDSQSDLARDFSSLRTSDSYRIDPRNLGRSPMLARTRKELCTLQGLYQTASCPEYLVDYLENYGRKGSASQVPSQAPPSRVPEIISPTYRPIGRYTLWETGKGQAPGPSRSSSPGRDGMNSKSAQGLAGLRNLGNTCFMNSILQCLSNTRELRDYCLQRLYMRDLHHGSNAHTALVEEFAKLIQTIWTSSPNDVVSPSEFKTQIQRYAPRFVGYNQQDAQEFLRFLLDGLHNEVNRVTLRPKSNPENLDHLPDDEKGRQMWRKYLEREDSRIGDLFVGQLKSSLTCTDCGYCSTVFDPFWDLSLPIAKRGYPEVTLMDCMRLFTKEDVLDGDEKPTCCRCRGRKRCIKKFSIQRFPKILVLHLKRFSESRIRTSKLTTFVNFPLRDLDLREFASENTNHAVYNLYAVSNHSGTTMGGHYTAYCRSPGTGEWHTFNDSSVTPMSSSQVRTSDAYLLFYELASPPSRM", "experiment": "ITC, Flag-USP2a", "assay_type": "binding", "set-up": "host or cells: HEK293T", "excerpt": "Purification of Flag-tagged DDX5 (Flag-DDX5), USP2a (Flag-USP2), UbE2T (Flag-(bE2T) and topoisomerase 1 (Top1) (Flag-Top1) proteins: Flag-DDX5, Flag-USP2, Flag-UbE2T and Flag-Topl proteins were purified from the protein expression vector-transfected HEK293T cells by using the FLAG® M Purification Kit for mammalian expression systems (CELLMM2-IKT, Sigma). Briefly, sub-confluent populations of HEK293T cells were transfected with expression vectors for Flag-DDX5, Flag-USP2, Flag-UbE2T and Flag-Top1 (OriGene) using Lipofectamine 2000 (Invitrogen) as per the manufacturer's instructions. After 72h of transfection, cells were lysed in Cell Lytic M lysis reagent (Sigma Cat #C2978) containing a protease inhibitor cocktail. […]\nReplacement of the Tris-HCl buffer with the PBS buffer for purified proteins for drug-protein binding analyses using isothermal titration calorimetry (ITC): After the purified proteins were eluted from the agarose resin with 3×flag peptide, the same purified protein samples from different batches were combined. […] The PBS-resuspended protein samples were recovered from the reservoir and the protein concentrations were determined using the nano-drop reader (Bio-Rad) and BCA Protein Assay (Thermo/Pierce) for double-making sure the concentration. […]"}
{"compound": "CCC1(O)C(=O)OCc2c1cc1n(c2=O)Cc2cc3cc4c(cc3nc2-1)OCO4", "note": "(stereo not shown) [FL118]", "values": [{"measurement": "Kd", "result": 52.3, "unit": "nM"}]}
